The text below walks through data of patent US20090215895A1, “Therapeutic and carrier molecules” (PEPLIN BIOLIPIDS PTY LTD, priority 2004, published 2009).

Bounds are passed on as bounds.

For data set [1], the system named is IKK. The data set is described as follows: TNF-stimulated activation of IKK in HUVEC (immunoprecipitation kinase assay). The data set is classed as cell-based, human. The following applies: 20 μmol/l, 30 min, TNF 5 min. The method, then: FIG. 17 is a representation showing (A) the effect of MP3 (β-oxa 23:4n-6) and DHA on TNF-induced degradation of IκBα in HUVEC. Cells were pre-treated with the fatty acids (20 μmol/l) for 30 min and then stimulated with TNF (125 U/ml) for 10 min. After cell lysis the proteins were analyzed by Western blots using anti-IκBα antibodies. (B) The effects of β-oxa-23:4n-6 on TNF-induced activation of transcriptional factor, NFκB in HUVEC. Cells were pre-treated with β-oxa-23:4n-6 (20 μmol/l) for 30 min and then stimulated with TNF for 2 hr. After cell lysis, nuclear fractions were prepared, nuclear proteins separated by SDS PAGE (12% w/v gel), transferred to nitrocellulose and probed with an anti-NFκB p65 antibody (Santa Cruz). […] (C) The effect of β-oxa 23:4n-6 on TNF-stimulated activation of IKK. Cells were pre-treated with β-oxa 23:4n-6 (20 μmol/l) for 30 min and then stimulated with TNF for 5 min. After cell lysis IKK was immunoprecipitated with anti-IKKα antibody and kinase activity determined.
IKK was immunoprecipitated with anti-IKKα (M-280) antibody (sc-7182, Santa Cruz, Biotech) and kinase activity determined using GST-IκBA (residues 5-55) as previously described (Lee et al, 1998 supra). Proteins were fractionated by SDS PAGE and radioactivity associated with GST-IκBα (residues 5-55) determined using an instant imager.

A short description of data set [2]: Tolerability of intravenous MP3. It counts as in vivo, mice. To be noted: 50 mg/kg intravenously, 4 days. An excerpt: In accordance with the present invention, a novel engineered polyunsaturated fatty acid, β-oxa-23:4n-6 (MP3) (FIG. 5) is identified which has the hall-marks of a new class of pharmaceuticals based on polyunsaturated fatty acids and which can be used to prevent and/or treat cardiovascular disease. […] The focus of this embodiment of the subject invention is, therefore, the efficacy of MP3 at suppressing adhesion molecule expression in vivo and the development of atherosclerosis.

The subject of data set [3] is HUVEC. The data set is described as follows: Agonist-enhanced neutrophil adherence to HUVEC. The data set is classed as cell-based, human. To be noted: for Inhibition of TNF-α-enhanced neutrophil adhesion to HUVEC: 20 μmol/l, 1 hr pre-treatment, TNF 4 hr. In outline: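 HUVEC were pre-treated 60 min at 37° C. with fatty acids (20 μmol/l), stimulated with TNF (125 U/200 μl) for 4 hr, then co-incubated 30 min with neutrophils (5×10^5 cells/well). Adherence expressed as % of control, mean±SEM of three triplicate experiments.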

The test system of data set [4] is E-selectin. The data set is described as follows: LPS-induced E-selectin expression in aortic endothelium. It counts as in vivo, BALB/c mice. To be noted: intravenous, 2 hr before LPS, aortas after 5 hr. The method, then: FIG. 14 is a representation showing (A) effect of MP3 on in vivo inflammatory response measured as delayed type hypersensitivity (DTH) to sheep erythrocytes and LPS-induced influx of neutrophils and mononuclear cells in the peritoneal cavity in BALB/c mice. In the DTH experiments mice were injected with sheep erythrocytes subcutaneously, challenged with the antigen in the hind foot pad 6 days later and the amount of foot pad swelling measured 48 hr later. One hour prior to challenge mice were given 10 mg/kg body weight of β-oxa fatty acid in 7% w/v, DMSO as vehicle intraperitoneally. For the peritoneal cavity inflammation, mice were given intravenously 40 mg/kg MP3 intravenously and 6 hr later injected with LPS intraperitoneally. The cellular infiltrates were examined 24 and 72 hr later. The data, expressed as % of control, are presented as mean±SEM of 10 and 5 mice for DTH and peritoneal inflammation, respectively. […] The data, expressed as % of control, are presented as mean±SEM of ten mice per group and is representative of two experimental runs. […]
The LPS-induced expression of E-selectin in the aortic endothelium of BALB/c mice was determined following injection of 50 μg LPS intraperitoneally and aortas encompassing the ascending part of the aortic arch through to the bifurcation to the common iliac arteries isolated after 5 hr. […]

`CCCCC/C=C\C/C=C\C/C=C\C/C=C\CCCCOCC(=O)O` [MP3, β-oxa-23:4n-6]: the “TNF-stimulated activation of IKK / IκB kinase-NFκB signalling pathway” value in data set [1] is reported as “inhibits the ability of TNF to activate”; in data set [1] (listed as β-oxa 23:4n-6), “significantly inhibited”. In addition, the “Observable signs of distress” value in data set [2] is on record as “did not cause any observable signs of distress”. In addition, in data set [3], the “Inhibition of LPS- or PMA-induced neutrophil adhesion to HUVEC” value is recorded as “inhibited the increase in neutrophil adhesion”. For the same compound, the results for the “Inhibition of TNF-α-enhanced neutrophil adhesion to HUVEC” value in data set [3], in data set [3] (listed as β-oxa 23:4n-6) and in data set [3] (listed as β-oxa-23:4n-6) were “greatest suppression”, “most active” and “inhibited their ability to be stimulated”, respectively. Moreover, the “Concentration with significant suppression of TNF-α-induced neutrophil adhesion” value in data set [3] (pre-treatment time of 1 hr) was at least 5 µmol/L. In addition, the entries for the “LPS-induced E-selectin expression in aortic endothelium” value in data set [4] and in data set [4] (listed as β-oxa-23:4n-6) were “effective in vivo at suppressing LPS-stimulated up-regulation of E-selectin expression” and “significant reduction in LPS-induced E-selectin expression”, respectively.
